Experimental data reported in patent publication US20130059879A1, “Small Molecule Inhibitors of PFKFB3 and Glycolytic Flux and Their Methods of Use as Anti-Cancer Therapeutics” (UNIVERSITY OF LOUISVILLE RESEARCH FOUNDATION, INC., priority 2010, published 2013).
Converted amounts (≈) assume the structure as drawn.

Tested on: not listed separately
Experiment: Microsomal stability in human liver microsomes
Assay type: in vitro ADME
Details: 0 min
Description: Microsomal stability in vitro in different biologic media (liver microsomes, S9 fraction, hepatocytes) and species is ascertained to evaluate the rate at which a compound undergoes metabolism in the experimental in vitro conditions. Results for some compounds of the invention after a 60 minutes incubation period in human liver microsomes are shown in the Table 6 below. […] Experimental conditions are briefly described here: the stability in human liver microsomes of several compounds was done over […] at 37° C. using pooled mixed gender human liver microsomes. These liver microsomes were prepared at 1.0 mg/ml of microsomal protein in a 100 mM potassium phosphate pH 7.4 buffer with 1 mM NADPH. The media was incubated at 37° C. with the compound in solution in DMSO. The concentration of the compound was followed by LC/MS-MS as a function of time. Samples were assayed at t=0, 15, 30, and 60 minutes. Testosterone was used as a positive control. The same experiment was performed with mouse, rat or dog liver microsomes instead of human liver microsomes.

HLM, Mean metabolized (%)	SMILES
0.0	O=C(c1ccncc1)c1cc2c(cc(F)c3ccccc32)[nH]1 [ACT-PFK-118, (5-Fluoro-3H-benzo[e]indol-2-yl)-pyridin-4-yl-methanone]
0.0	COc1cc(C(=O)c2cc3c(cc(F)c4ccccc43)[nH]2)ccc1O [ACT-PFK-119, (5-Fluoro-3H-benzo[e]indol-2-yl)-(4-hydroxy-3-methoxy-phenyl)-methanone]

Same assay, conditions: 60 min incubation, 1.0 mg/ml microsomal protein, 1 mM NADPH, 37° C.

HLM, Mean metabolized (%)	SMILES
22.2	O=C(c1ccncc1)c1cc2c(cc(F)c3ccccc32)[nH]1 [ACT-PFK-118, (5-Fluoro-3H-benzo[e]indol-2-yl)-pyridin-4-yl-methanone]
79.2	COc1cc(C(=O)c2cc3c(cc(F)c4ccccc43)[nH]2)ccc1O [ACT-PFK-119, (5-Fluoro-3H-benzo[e]indol-2-yl)-(4-hydroxy-3-methoxy-phenyl)-methanone]

Biological target: T1, PFKFB3 (Homo sapiens, UniProt Q16875)
T1 construct: GST
T1 sequence (Q16875 whole entry, species assumed): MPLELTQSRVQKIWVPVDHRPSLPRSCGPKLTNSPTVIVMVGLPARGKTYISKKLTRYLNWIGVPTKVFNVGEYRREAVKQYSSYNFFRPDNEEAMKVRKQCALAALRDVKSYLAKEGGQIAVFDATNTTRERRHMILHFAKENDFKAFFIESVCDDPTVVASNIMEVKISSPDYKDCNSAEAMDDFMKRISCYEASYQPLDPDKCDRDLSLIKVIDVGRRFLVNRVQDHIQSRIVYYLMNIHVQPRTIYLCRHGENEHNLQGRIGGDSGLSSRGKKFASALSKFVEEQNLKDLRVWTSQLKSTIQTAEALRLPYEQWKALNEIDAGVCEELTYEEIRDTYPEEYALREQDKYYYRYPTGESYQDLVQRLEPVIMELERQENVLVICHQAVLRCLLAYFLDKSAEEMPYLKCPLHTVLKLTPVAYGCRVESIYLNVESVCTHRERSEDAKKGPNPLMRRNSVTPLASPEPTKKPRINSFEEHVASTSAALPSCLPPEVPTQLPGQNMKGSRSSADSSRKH
Experiment: Inhibition of recombinant PFKFB3 kinase activity (ADP Glow assay)
Assay type: biochemical
Details: 250 nM analog concentration; read-out: % Inhibition of PFKFB3 Enzymatic Activity
Description: PFKFB3 was prepared by expression in E. coli and purified by GST column and column chromatography. […] The recombinant protein was pure and active as determined by the results of a kinase activity assay commercially available (such as ADP Glow® assay, […]). The same assay was used to determine the inhibition of the protein and the results are shown in Table 5 below (IC50 values or percent inhibition at a fixed concentration). Results confirmed that the compounds of the invention have low nanomolar IC50 values, interacting with PFKFB3 and inhibiting its enzymatic activity.

inhibition at 0.25 µM [%]	SMILES
0	O=C(c1ccncc1)c1cc2c(cc(F)c3ccccc32)[nH]1 [ACT-PFK-118, (5-Fluoro-3H-benzo[e]indol-2-yl)-pyridin-4-yl-methanone]
3.7	COc1cc(C(=O)c2cc3c(cc(F)c4ccccc43)[nH]2)ccc1O [ACT-PFK-119, (5-Fluoro-3H-benzo[e]indol-2-yl)-(4-hydroxy-3-methoxy-phenyl)-methanone]

Tested on: NCI-H82
Experiment: Cancer cell proliferation, Alamar Blue assay, 72 hours
Assay type: cell-based
Details: Homo sapiens, NCI-H82, read-out: IC50 NCl-H82
Description: (§1) The ability of the compounds described herein to kill or inhibit the proliferation of cancer cells was measured using either the MTT assay, or the Alamar Blue assay, or the Cell Titer Glow® assay using 48 or 72 hours exposure. […] The procedures are briefly described below. Cells of the desired tumor cell line were plated at 2×10^5 cells/ml in 96 well plates. Twice the indicated concentrations of the compounds of the invention were added to cells the following day in an equal volume of media. 72 hours later, cells were lysed and subjected to ATP determination using the CellTiter Glo-Luminescent Cell Viability Assay kit (Promega, Madison, Wis.). Experiments were done in triplicate. When using the MTT assay or the Alamar blue assay, the experimental conditions are essentially similar; at the end of the incubation period, 20 microliters of the MTT solution is added per well and the samples are incubated for an additional four hours, rinsed, and the absorbance at 570 nm measured. […] Table 2 lists the IC50 values for the compounds of the invention in several cell lines including Jurkat, Calu-6, NCI-H82, U937, HCT-116, and MDA-MB-231 cancer cell lines.

IC50 [nM]	SMILES
385	O=C(c1ccncc1)c1cc2c(cc(F)c3ccccc32)[nH]1 [ACT-PFK-118, (5-Fluoro-3H-benzo[e]indol-2-yl)-pyridin-4-yl-methanone]
315	COc1cc(C(=O)c2cc3c(cc(F)c4ccccc43)[nH]2)ccc1O [ACT-PFK-119, (5-Fluoro-3H-benzo[e]indol-2-yl)-(4-hydroxy-3-methoxy-phenyl)-methanone]

Tested on: Calu-6
Experiment: as above
Assay type: cell-based
Details: Homo sapiens, Calu-6
Description: as §1

IC50 [nM]	SMILES
420	O=C(c1ccncc1)c1cc2c(cc(F)c3ccccc32)[nH]1 [ACT-PFK-118, (5-Fluoro-3H-benzo[e]indol-2-yl)-pyridin-4-yl-methanone]
70	COc1cc(C(=O)c2cc3c(cc(F)c4ccccc43)[nH]2)ccc1O [ACT-PFK-119, (5-Fluoro-3H-benzo[e]indol-2-yl)-(4-hydroxy-3-methoxy-phenyl)-methanone]

Tested on: MDA-MB-231
Experiment: as above
Assay type: cell-based
Details: Homo sapiens
Description: as §1

IC50 [nM]	SMILES
673	O=C(c1ccncc1)c1cc2c(cc(F)c3ccccc32)[nH]1 [ACT-PFK-118, (5-Fluoro-3H-benzo[e]indol-2-yl)-pyridin-4-yl-methanone]
620	COc1cc(C(=O)c2cc3c(cc(F)c4ccccc43)[nH]2)ccc1O [ACT-PFK-119, (5-Fluoro-3H-benzo[e]indol-2-yl)-(4-hydroxy-3-methoxy-phenyl)-methanone]

Tested on: Jurkat
Experiment: as above
Assay type: cell-based
Details: Homo sapiens, Jurkat
Description: as §1

IC50 [nM]	SMILES
240	O=C(c1ccncc1)c1cc2c(cc(F)c3ccccc32)[nH]1 [ACT-PFK-118, (5-Fluoro-3H-benzo[e]indol-2-yl)-pyridin-4-yl-methanone]
110	COc1cc(C(=O)c2cc3c(cc(F)c4ccccc43)[nH]2)ccc1O [ACT-PFK-119, (5-Fluoro-3H-benzo[e]indol-2-yl)-(4-hydroxy-3-methoxy-phenyl)-methanone]

Tested on: HCT-116
Experiment: as above
Assay type: cell-based
Details: Homo sapiens, HCT-116
Description: as §1

IC50 [nM]	SMILES
1700	O=C(c1ccncc1)c1cc2c(cc(F)c3ccccc32)[nH]1 [ACT-PFK-118, (5-Fluoro-3H-benzo[e]indol-2-yl)-pyridin-4-yl-methanone]
365	COc1cc(C(=O)c2cc3c(cc(F)c4ccccc43)[nH]2)ccc1O [ACT-PFK-119, (5-Fluoro-3H-benzo[e]indol-2-yl)-(4-hydroxy-3-methoxy-phenyl)-methanone]

Tested on: U937
Experiment: as above
Assay type: cell-based
Details: Homo sapiens, U-937
Description: as §1

IC50 [nM]	SMILES
95	O=C(c1ccncc1)c1cc2c(cc(F)c3ccccc32)[nH]1 [ACT-PFK-118, (5-Fluoro-3H-benzo[e]indol-2-yl)-pyridin-4-yl-methanone]
70	COc1cc(C(=O)c2cc3c(cc(F)c4ccccc43)[nH]2)ccc1O [ACT-PFK-119, (5-Fluoro-3H-benzo[e]indol-2-yl)-(4-hydroxy-3-methoxy-phenyl)-methanone]

Tested on: not listed separately
Experiment: Solubility in solvents and excipients, 1 hour at room temperature, HPLC
Assay type: physicochemical
Details: aqueous with cosolvent or surfactant or cyclodextrin, thermodynamic from solid; Cre:EtOH:Saline 5:5:90 mixture, 1 hour at room temperature; read-out: Solubility Cre:EtOH:Saline
Description: Chemical properties of the compounds of the invention were investigated, including the solubility in several solvents and pharmaceutically accepted excipients. […] Briefly, selected compounds of the invention are dissolved in a small volume of the solvents/excipients of interest at room temperature over 1 hour in typically 1 ml and the concentration is measured by HPLC after filtration.

solubility at 1 h [µg/mL]	SMILES
100 (≈ 0.344 mM)	O=C(c1ccncc1)c1cc2c(cc(F)c3ccccc32)[nH]1 [ACT-PFK-118, (5-Fluoro-3H-benzo[e]indol-2-yl)-pyridin-4-yl-methanone]
300 (≈ 0.895 mM)	COc1cc(C(=O)c2cc3c(cc(F)c4ccccc43)[nH]2)ccc1O [ACT-PFK-119, (5-Fluoro-3H-benzo[e]indol-2-yl)-(4-hydroxy-3-methoxy-phenyl)-methanone]

Same assay, conditions: ethanol, organic solvent or mixture, thermodynamic from solid; EtOH, 1 hour at room temperature; read-out: Solubility EtOH

solubility at 1 h [µg/mL]	SMILES
200 (≈ 0.689 mM)	O=C(c1ccncc1)c1cc2c(cc(F)c3ccccc32)[nH]1 [ACT-PFK-118, (5-Fluoro-3H-benzo[e]indol-2-yl)-pyridin-4-yl-methanone]
1000 (≈ 2.98 mM)	COc1cc(C(=O)c2cc3c(cc(F)c4ccccc43)[nH]2)ccc1O [ACT-PFK-119, (5-Fluoro-3H-benzo[e]indol-2-yl)-(4-hydroxy-3-methoxy-phenyl)-methanone]

Same assay, conditions: organic solvent or mixture, thermodynamic from solid; 1:1 cremophor EL-P:ethanol mixture, 1 hour at room temperature; read-out: Solubility Cre:EtOH

solubility at 1 h [µg/mL]	SMILES
1000 (≈ 3.44 mM)	O=C(c1ccncc1)c1cc2c(cc(F)c3ccccc32)[nH]1 [ACT-PFK-118, (5-Fluoro-3H-benzo[e]indol-2-yl)-pyridin-4-yl-methanone]
6100 (≈ 18.2 mM)	COc1cc(C(=O)c2cc3c(cc(F)c4ccccc43)[nH]2)ccc1O [ACT-PFK-119, (5-Fluoro-3H-benzo[e]indol-2-yl)-(4-hydroxy-3-methoxy-phenyl)-methanone]

Same assay, conditions: organic solvent or mixture, thermodynamic from solid; Acetone, 1 hour at room temperature; read-out: Solubility Acetone

solubility at 1 h [µg/mL]	SMILES
600 (≈ 2.07 mM)	O=C(c1ccncc1)c1cc2c(cc(F)c3ccccc32)[nH]1 [ACT-PFK-118, (5-Fluoro-3H-benzo[e]indol-2-yl)-pyridin-4-yl-methanone]
5500 (≈ 16.4 mM)	COc1cc(C(=O)c2cc3c(cc(F)c4ccccc43)[nH]2)ccc1O [ACT-PFK-119, (5-Fluoro-3H-benzo[e]indol-2-yl)-(4-hydroxy-3-methoxy-phenyl)-methanone]

Same assay, conditions: organic solvent or mixture, thermodynamic from solid; Cremophor, 1 hour at room temperature; read-out: Solubility Cremophor

solubility at 1 h [µg/mL]	SMILES
2200 (≈ 7.58 mM)	O=C(c1ccncc1)c1cc2c(cc(F)c3ccccc32)[nH]1 [ACT-PFK-118, (5-Fluoro-3H-benzo[e]indol-2-yl)-pyridin-4-yl-methanone]
14400 (≈ 42.9 mM)	COc1cc(C(=O)c2cc3c(cc(F)c4ccccc43)[nH]2)ccc1O [ACT-PFK-119, (5-Fluoro-3H-benzo[e]indol-2-yl)-(4-hydroxy-3-methoxy-phenyl)-methanone]

Same assay, conditions: organic solvent or mixture, thermodynamic from solid; DCM, 1 hour at room temperature; read-out: Solubility DCM

solubility at 1 h [µg/mL]	SMILES
300 (≈ 1.03 mM)	O=C(c1ccncc1)c1cc2c(cc(F)c3ccccc32)[nH]1 [ACT-PFK-118, (5-Fluoro-3H-benzo[e]indol-2-yl)-pyridin-4-yl-methanone]
700 (≈ 2.09 mM)	COc1cc(C(=O)c2cc3c(cc(F)c4ccccc43)[nH]2)ccc1O [ACT-PFK-119, (5-Fluoro-3H-benzo[e]indol-2-yl)-(4-hydroxy-3-methoxy-phenyl)-methanone]

Same assay, conditions: organic solvent or mixture, thermodynamic from solid; Tween 80, 1 hour at room temperature; read-out: Solubility Tween 80

solubility at 1 h [µg/mL]	SMILES
1600 (≈ 5.51 mM)	O=C(c1ccncc1)c1cc2c(cc(F)c3ccccc32)[nH]1 [ACT-PFK-118, (5-Fluoro-3H-benzo[e]indol-2-yl)-pyridin-4-yl-methanone]
11400 (≈ 34 mM)	COc1cc(C(=O)c2cc3c(cc(F)c4ccccc43)[nH]2)ccc1O [ACT-PFK-119, (5-Fluoro-3H-benzo[e]indol-2-yl)-(4-hydroxy-3-methoxy-phenyl)-methanone]

Same assay, conditions: organic solvent or mixture, thermodynamic from solid; Tween80:EtOH 6:4 mixture, 1 hour at room temperature; read-out: Solubility Twee80:EtOH

solubility at 1 h [µg/mL]	SMILES
1300 (≈ 4.48 mM)	O=C(c1ccncc1)c1cc2c(cc(F)c3ccccc32)[nH]1 [ACT-PFK-118, (5-Fluoro-3H-benzo[e]indol-2-yl)-pyridin-4-yl-methanone]
8600 (≈ 25.6 mM)	COc1cc(C(=O)c2cc3c(cc(F)c4ccccc43)[nH]2)ccc1O [ACT-PFK-119, (5-Fluoro-3H-benzo[e]indol-2-yl)-(4-hydroxy-3-methoxy-phenyl)-methanone]
